Data: article PMC11267363, “Supramolecular Nanofibers Ameliorate Bleomycin‐Induced Pulmonary Fibrosis by Restoring Autophagy” (Advanced Science, 2024)

System: MRC-5 cells
Experiment: Cell migration, invasion and wound-healing assay
Format: cell-based, human
Conditions: MRC-5 cells stimulated by TGF-β1, peptide 50 µM, 24 h transwell, 48 h wound closure, n = 3
Protocol: For wound healing, cell monolayers were scratched with pipette tip. Cells were incubated with or without 10 ng ml^−1 recombinant human TGF‐β1. Ac‐GFFY‐A2 (50 µM) or A2 (50 µM) was added to the medium 1 h behind to TGF‐β1 stimulation. Images were captured at 0 and 48 h after scratching, and the lesion area was measured with Image J software. Cell invasion assay was performed using transwell chambers (8‐µm pore size, Millipore). Chambers were pre‐coated with Matrigel (30 µg per well, BD). Cells were seeded into the chamber with MEM supplemented with 0.1% FBS, and the lower well was added MEM supplemented with 20% FBS. After incubated for 24 h, non‐invaded cells on the upside were removed with cotton swap, and invaded cells were fixed with 4% paraformaldehyde, stained with 0.5% crystal violet, and then photographed under a microscope. The crystal violet stain was eluted in alcohol and quantified at OD540 nm. […]
MRC-5 cells were seeded on a 6-well plate at a density of 6×10^4 cells per well then cultured for 12 hours to adhere the walls. […] The cells were collected and centrifuged, finally the cellular uptake was measured by flow cytometry. […]
Images were captured at 0 h and 48 h after scratching, and the lesion area was measured with Image J software. […] The crystal violet stain was eluted in alcohol and quantified at OD540 nm. […]

## Ac-GFFYGGWLTRLLQTK-OH [Ac-GFFY-A2]
  rate of migration and invasion: decline in the rate of migration and invasion
